In article PMC5333395, “Assessing histone demethylase inhibitors in cells: lessons learned” (Epigenetics & Chromatin, 2017):

Key:
KDM4A = molecular target: T1, KDM4A (Homo sapiens, UniProt O75164, A482E); experiment: High-content immunofluorescence (IF) assay, overexpressed full-length FLAG-tagged KDM in HeLa cells; type: cell-based; conditions: HeLa cells transfected with KDM4A
T1 construct: transiently transfecting the full-length FLAG-tagged demethylase (WT) into cells; expressed in transfected cells; host or cells: HeLa
T1 sequence (O75164 1-1064 A482E): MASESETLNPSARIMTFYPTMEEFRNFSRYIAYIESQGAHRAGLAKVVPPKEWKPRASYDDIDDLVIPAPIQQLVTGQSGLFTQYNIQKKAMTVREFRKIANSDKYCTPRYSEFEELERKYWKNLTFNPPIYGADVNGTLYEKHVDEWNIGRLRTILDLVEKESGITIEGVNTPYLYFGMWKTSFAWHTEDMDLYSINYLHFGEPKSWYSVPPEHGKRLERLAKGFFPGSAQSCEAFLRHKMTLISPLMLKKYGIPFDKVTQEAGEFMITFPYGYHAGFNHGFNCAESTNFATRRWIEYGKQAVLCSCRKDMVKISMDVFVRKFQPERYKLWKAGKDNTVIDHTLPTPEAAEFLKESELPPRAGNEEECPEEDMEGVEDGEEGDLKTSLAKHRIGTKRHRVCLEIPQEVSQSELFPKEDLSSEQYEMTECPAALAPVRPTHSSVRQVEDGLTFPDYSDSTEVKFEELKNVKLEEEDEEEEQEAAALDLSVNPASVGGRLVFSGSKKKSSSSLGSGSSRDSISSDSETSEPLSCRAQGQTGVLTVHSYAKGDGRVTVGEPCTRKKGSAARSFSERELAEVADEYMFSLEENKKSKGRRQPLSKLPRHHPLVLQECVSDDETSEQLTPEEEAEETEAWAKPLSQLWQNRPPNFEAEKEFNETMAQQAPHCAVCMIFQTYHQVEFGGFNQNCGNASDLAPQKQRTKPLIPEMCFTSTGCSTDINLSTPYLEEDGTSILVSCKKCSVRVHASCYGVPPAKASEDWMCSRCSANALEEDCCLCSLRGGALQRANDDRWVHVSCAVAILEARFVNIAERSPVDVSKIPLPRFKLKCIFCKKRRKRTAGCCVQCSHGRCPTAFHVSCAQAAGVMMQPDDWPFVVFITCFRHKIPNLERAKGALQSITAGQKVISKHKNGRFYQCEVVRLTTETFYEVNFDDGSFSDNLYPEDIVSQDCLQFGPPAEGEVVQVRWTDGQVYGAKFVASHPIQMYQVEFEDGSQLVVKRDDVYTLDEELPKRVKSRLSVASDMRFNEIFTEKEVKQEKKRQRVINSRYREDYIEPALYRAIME

KDM5B = KDM5B (Homo sapiens, UniProt Q9UGL1); parameters: method as in PMID 26741168; conditions: AlphaScreen; in vitro biochemical profiling previously reported; cited from earlier work
KDM6B = KDM6B (Homo sapiens, UniProt O15054); experiment: High-content immunofluorescence (IF) assay, overexpressed full-length FLAG-tagged KDM in HeLa cells; type: cell-based; conditions: HeLa cells overexpressing WT KDM6B, H3K27me3 mark, 24 h; read-out: KDM6B, in cells, EC50 by IF assay (head: IC50)
Chain of KDM6B (O15054 whole entry): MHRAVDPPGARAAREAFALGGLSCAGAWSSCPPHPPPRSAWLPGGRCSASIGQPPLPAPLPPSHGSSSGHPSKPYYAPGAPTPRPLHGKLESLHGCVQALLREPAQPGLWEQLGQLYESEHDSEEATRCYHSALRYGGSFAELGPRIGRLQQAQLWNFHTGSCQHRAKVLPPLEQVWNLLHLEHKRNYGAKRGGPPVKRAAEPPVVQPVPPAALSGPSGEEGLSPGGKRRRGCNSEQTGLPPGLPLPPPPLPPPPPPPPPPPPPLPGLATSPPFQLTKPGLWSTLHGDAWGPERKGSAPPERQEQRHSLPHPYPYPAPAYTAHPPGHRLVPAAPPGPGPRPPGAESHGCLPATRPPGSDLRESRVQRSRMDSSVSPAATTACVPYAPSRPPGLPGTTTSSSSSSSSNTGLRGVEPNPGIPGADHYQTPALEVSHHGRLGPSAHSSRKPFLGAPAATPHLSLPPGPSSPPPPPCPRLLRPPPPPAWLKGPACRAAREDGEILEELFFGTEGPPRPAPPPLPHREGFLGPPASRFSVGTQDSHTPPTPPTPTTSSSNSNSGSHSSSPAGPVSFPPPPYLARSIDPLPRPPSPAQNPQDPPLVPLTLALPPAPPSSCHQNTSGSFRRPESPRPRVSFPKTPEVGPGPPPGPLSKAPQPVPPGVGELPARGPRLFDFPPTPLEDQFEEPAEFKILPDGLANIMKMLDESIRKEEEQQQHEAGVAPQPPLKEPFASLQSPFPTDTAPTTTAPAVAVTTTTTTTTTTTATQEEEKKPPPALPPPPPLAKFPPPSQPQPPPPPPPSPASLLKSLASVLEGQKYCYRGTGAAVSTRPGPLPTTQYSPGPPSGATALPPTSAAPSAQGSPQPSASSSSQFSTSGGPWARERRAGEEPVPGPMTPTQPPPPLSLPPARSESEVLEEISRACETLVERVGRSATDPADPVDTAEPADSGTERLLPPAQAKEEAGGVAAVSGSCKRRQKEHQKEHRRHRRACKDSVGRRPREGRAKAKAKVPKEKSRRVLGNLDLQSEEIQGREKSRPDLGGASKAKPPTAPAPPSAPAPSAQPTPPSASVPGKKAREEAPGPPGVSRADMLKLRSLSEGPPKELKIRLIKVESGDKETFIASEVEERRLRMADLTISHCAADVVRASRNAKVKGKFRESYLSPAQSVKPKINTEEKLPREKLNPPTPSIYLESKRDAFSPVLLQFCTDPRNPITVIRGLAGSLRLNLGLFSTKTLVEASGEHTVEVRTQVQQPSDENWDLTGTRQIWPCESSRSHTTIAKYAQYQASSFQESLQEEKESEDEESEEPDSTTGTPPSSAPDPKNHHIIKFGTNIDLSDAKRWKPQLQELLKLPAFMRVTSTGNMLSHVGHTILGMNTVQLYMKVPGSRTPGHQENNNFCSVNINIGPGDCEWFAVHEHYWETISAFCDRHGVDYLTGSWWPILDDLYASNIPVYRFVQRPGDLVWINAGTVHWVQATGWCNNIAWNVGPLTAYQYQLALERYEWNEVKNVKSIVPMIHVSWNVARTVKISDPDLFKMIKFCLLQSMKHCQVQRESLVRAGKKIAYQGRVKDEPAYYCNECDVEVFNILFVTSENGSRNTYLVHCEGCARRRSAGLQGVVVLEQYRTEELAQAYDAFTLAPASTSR

Chain of KDM5B (Q9UGL1 whole entry): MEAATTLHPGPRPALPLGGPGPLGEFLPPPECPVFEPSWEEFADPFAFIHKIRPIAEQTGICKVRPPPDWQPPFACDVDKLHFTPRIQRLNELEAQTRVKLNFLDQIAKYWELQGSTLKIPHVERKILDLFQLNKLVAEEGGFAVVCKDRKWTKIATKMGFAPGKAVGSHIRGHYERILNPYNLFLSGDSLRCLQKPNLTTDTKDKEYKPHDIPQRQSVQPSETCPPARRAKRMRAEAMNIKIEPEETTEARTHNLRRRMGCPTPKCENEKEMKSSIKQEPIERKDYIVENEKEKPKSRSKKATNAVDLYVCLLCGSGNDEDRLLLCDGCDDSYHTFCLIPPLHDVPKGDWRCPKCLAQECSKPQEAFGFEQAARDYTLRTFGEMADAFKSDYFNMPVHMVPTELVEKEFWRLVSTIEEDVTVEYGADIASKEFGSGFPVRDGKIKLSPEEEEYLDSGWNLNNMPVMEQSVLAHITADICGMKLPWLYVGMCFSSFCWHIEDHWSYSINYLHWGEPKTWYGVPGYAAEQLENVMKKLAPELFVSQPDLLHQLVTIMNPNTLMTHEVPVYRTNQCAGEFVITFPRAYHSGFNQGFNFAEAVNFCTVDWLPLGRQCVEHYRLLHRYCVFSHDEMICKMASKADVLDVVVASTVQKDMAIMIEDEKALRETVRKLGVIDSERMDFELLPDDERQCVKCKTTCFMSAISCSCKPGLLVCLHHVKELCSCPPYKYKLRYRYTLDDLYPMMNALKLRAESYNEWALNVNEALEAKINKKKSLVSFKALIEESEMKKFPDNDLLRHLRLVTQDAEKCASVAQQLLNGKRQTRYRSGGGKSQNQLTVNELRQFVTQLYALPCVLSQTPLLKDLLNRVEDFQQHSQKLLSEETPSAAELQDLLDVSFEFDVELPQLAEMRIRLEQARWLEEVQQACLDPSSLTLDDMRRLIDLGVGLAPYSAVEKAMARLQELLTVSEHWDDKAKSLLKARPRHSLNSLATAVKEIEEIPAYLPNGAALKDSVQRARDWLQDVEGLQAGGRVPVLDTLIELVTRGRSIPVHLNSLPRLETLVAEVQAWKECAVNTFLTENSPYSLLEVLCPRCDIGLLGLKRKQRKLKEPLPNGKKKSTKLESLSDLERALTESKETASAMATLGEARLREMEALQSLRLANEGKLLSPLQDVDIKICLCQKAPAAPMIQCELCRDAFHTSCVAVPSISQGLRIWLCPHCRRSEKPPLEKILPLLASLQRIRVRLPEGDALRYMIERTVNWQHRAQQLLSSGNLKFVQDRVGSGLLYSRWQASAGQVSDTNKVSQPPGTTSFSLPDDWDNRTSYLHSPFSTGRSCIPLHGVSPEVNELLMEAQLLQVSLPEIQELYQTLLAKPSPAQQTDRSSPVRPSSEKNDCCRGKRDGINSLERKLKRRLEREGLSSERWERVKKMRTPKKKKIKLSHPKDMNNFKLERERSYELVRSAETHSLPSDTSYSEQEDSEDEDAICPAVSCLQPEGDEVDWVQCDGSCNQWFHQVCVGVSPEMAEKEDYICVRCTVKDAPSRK

For `O=c1[nH]cnc2c(-n3cc(CCN4CCC(c5cccc(Cl)c5)CC4)cn3)cccc12` [CCT366293, 8-(4-(2-(4-(3-Chlorophenyl)piperidin-1-yl)ethyl)-1H-pyrazol-1-yl)quinazolin-4(3H)-one], the “Effect on H3K9me3 levels in KDM4A IF assay, in words” value (KDM4A) was “no effect”.

For `Clc1ccc(N/N=C(\c2ccccc2)c2ccccn2)nc1` [JIB-04 E], the IC50 (KDM5B) is listed as 561 nM.

`CCN(CCN(C)C)C(=O)CNCc1cncc(C(N)=O)c1` [KDOAM-32] gave an EC50 (KDM6B) of over 100000 nM.
